Laboratory results taken from PubChem BioAssay (NCI).
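Cultured in 96-well plates, cells were exposed to test compound for 48 hours across five concentrations. Abbreviation: GI50, concentration required for 50% inhibition of growth. Definition used: TGI = concentration required for complete inhibition of growth.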

How the values were obtained:
Assay in all cases: NCI tumour cell line growth inhibition, 48 h
HS 578T breast = test system: HS 578T breast
IGROV1 ovarian = test system: IGROV1 ovarian
T-47D breast = test system: T-47D breast
DMS 114 small cell lung = test system: DMS 114 small cell lung
DMS 273 small cell lung = test system: DMS 273 small cell lung
LXFL 529 NSCLC = test system: LXFL 529 NSCLC
M19-MEL melanoma = test system: M19-MEL melanoma
786-0 renal = test system: 786-0 renal
RXF-631 renal = test system: RXF-631 renal
XF 498 CNS = test system: XF 498 CNS
P388 leukemia = test system: P388 leukemia
P388/ADR leukemia = test system: P388/ADR leukemia
SN12K1 renal = test system: SN12K1 renal
BT-549 breast = test system: BT-549 breast

Row | SMILES | TGI (HS 578T breast) [µM] | TGI (IGROV1 ovarian) [µM] | TGI (T-47D breast) [µM] | TGI (DMS 114 small cell lung) [µM] | TGI (DMS 273 small cell lung) [µM] | TGI (LXFL 529 NSCLC) [µM] | TGI (M19-MEL melanoma) [µM] | TGI (786-0 renal) [µM] | TGI (XF 498 CNS) [µM] | TGI (BT-549 breast) [µM] | further results
1 | CC(=O)OC/C=C/Cn1ncc(=O)[nH]c1=O | > 100 | > 100 | > 100 |  |  |  |  |  |  |  | 
2 | Nc1nncc2c1ccn2C1OC(CO)C(O)C1O (stereo not given) |  | > 100 |  | > 100 | > 100 | > 100 | > 100 |  |  |  | 
3 | Cc1ccc(S(=O)(=O)N/N=c2\c(C)c(C3=NS(=O)(=O)c4cc(S(N)(=O)=O)c(Cl)cc4N3)oc3c(Cl)cc(Cl)cc23)cc1 |  | > 100 |  | > 100 | 54 | > 100 | > 100 | > 100 |  |  | TGI (RXF-631 renal): > 100 µM
4 | CCOC(=O)Nc1cc2c(c(N)n1)N=C(c1ccccc1)[C@H](C)N2 |  | > 100 |  | < 0.0001 |  | > 100 | 29.2 |  | < 0.0001 |  | 
5 | O=C(CCl)NC(Cc1ccc(F)cc1)C(=O)O (stereo not given) |  | > 100 |  | > 100 | > 100 |  | > 100 |  | > 100 |  | TGI (P388 leukemia): > 100 µM; TGI (P388/ADR leukemia): > 100 µM; TGI (SN12K1 renal): > 100 µM
6 | Oc1c2c(c3c4c1N=CC=4CCN=3)-c1c(Br)cc(Br)cc1CCN2 |  | 13.8 |  | 7.12 | 11.8 |  | 3.33 |  | > 38.5 |  | TGI (P388/ADR leukemia): 5.83 µM; TGI (SN12K1 renal): 15.4 µM
7 | CC(=O)O[C@H]1CC[C@@]2(C)C(=CC[C@@H]3[C@@H]2CC[C@]2(C)Nc4c(cnn4S(C)(=O)=O)C[C@@H]32)C1 | > 100 | > 100 | > 100 |  |  |  |  |  |  | 72.5 | 
8 | COc1cc(N/N=C/C#N)cc(OC)c1OC | > 10 | > 10 | > 10 |  |  |  |  |  |  |  | 
9 | CC[C@H](Nc1nc(N)nc(C)c1C#N)c1nc2cccc(NCc3ccc(C(=O)NO)cc3)c2c(=O)n1-c1ccccc1 | 6.08 |  | 4.66 |  |  |  |  |  |  | 5.2 | GI50 (BT-549 breast): 1.56 µM; GI50 (HS 578T breast): 1.95 µM; GI50 (T-47D breast): 1.18 µM
10 | Cc1ccc([N+](=O)[O-])cc1NC(=O)C(=O)C(C(=O)c1ccccc1F)C1OC(=O)c2ccccc21 (stereo not given) |  | > 100 |  | 61.2 | > 100 | > 100 | > 100 |  | > 100 |  | TGI (RXF-631 renal): > 100 µM
11 | NC(=S)Nc1cc(Cl)ccc1Cl |  | > 100 |  | > 100 | > 100 | > 100 | > 100 |  | > 100 |  | TGI (RXF-631 renal): > 100 µM
12 | N=c1nc2n(cc1F)[C@@H]1O[C@H](CO)[C@@H](O)[C@@H]1O2 | > 100 | > 92.7 | 65.2 |  | > 100 | > 100 | > 100 | > 38.9 | > 100 | > 100 | 
13 | O=C1Nc2ccccc2S/C1=C\c1cccc(C(F)(F)F)c1 | > 100 | > 100 | > 100 |  |  |  |  | > 100 |  | > 100 | 
14 | CC(C)OC(=O)C1=C(O)c2ccccc2S(=O)(=O)N1 |  | > 100 |  |  | > 100 | > 100 | > 100 | > 100 | > 100 |  | TGI (RXF-631 renal): > 100 µM
15 | C=C1CC[C@@H](Br)C(C)(C)[C@]12CCC(C)(O)C(Cl)C2 (stereo not given in full) |  | 44 |  | 31.8 | 36.2 |  | 34.3 |  |  |  | TGI (RXF-631 renal): 41.9 µM
16 | CCC1CN2CCC1CC2 (stereo not given) |  | > 100 |  | > 100 | > 100 |  | > 100 |  | > 100 |  | TGI (P388 leukemia): > 100 µM; TGI (P388/ADR leukemia): > 100 µM; TGI (SN12K1 renal): > 100 µM
17 | Cc1cc2c(cc1C)[n+](=O)c(C#N)c(Cl)n2[O-] | > 100 | 33.3 |  |  |  |  |  |  |  | 38.1 | 
18 | O=C1Nc2ccccc2S/C1=C\c1ccccc1C(F)(F)F | > 100 | > 100 | > 100 |  |  |  |  | > 100 |  | > 100 | 
19 | CCCCCCCCCCCCCCCC(=O)OCC1CCCN2CCCCC12 (stereo not given) | > 100 |  |  |  |  |  |  | > 100 |  | > 100 | 
20 | CCOC(=O)[C@H]1Nc2c(cccc2[N+](=O)[O-])[C@H]2OCC[C@@H]12 |  | > 100 |  | > 100 | > 100 | > 100 | > 100 |  | > 100 |  | TGI (RXF-631 renal): > 100 µM
21 | CC1CCC(O)(C(C)(C(=O)O)c2ccccc2)CC1 (stereo not given) | > 100 | > 100 | > 100 |  |  |  |  | > 100 |  | > 100 | 
22 | O=C(O)NCc1ccccc1 (tested in a mixture with another compound) | > 82.8 | > 100 | > 81.6 |  |  |  |  | > 100 |  | > 92.3 | 
23 | C/C(=N\Oc1cc(Cl)ncn1)c1ccccn1 | > 100 | > 100 | > 100 |  |  |  |  |  |  | > 100 | 
24 | O=C(N/C(=C\c1cccc([N+](=O)[O-])c1)c1nc2[nH]c(=S)[nH]c(=O)c2[nH]1)c1ccccc1 |  | > 100 |  | > 100 |  | > 100 | > 100 | > 100 | > 100 |  | TGI (RXF-631 renal): > 100 µM
